In patent publication US20120270935A1, “FORMULATIONS” (priority 2009, published 2012):

System: S. pyogenes ATCC 12344
Assay: Disc diffusion assay (DDA)
Format: cell-based, Streptococcus pyogenes
Conditions: 200 μg per disc; Mueller-Hinton agar pH 7.0; 48 hours at 37° C., 5% carbon dioxide
Source text: (a) staphylococci. The Staphylococcus aureus strain used was ATCC 29213. S. aureus and other staphylococci are common causes of a wide range of skin, skin structure and wound infections; S. aureus is also known to exacerbate eczema. The ATCC 29213 strain is known to be susceptible to beta-lactam antibiotics such as methicillin. The Staphylococcus epidermidis strain used was NCTC 11047. Staph. epidermidis forms part of the resident flora of skin and is an opportunistic pathogen which can cause biofilms to grow for instance on plastic surgical implants such as catheters. Unless otherwise stated, the staphylococci were cultured and maintained on Mueller-Hinton Medium (agar and broth) at pH 7.2; cultures were incubated aerobically at 37° C. for 19-20 hours, at pH 7 (±0.2). (b) C. striatum NCTC 764. Corynebacterium striatum is closely related to organisms (aerobic diphtheroids of the genus Corynebacterium) that cause body odour. It was cultured and maintained on Mueller-Hinton medium (agar and broth). All cultures were incubated aerobically at 37° C. for 72 hours, at pH 7 (±0.2). (c) streptococci. The strains tested were S. mutans ATCC 25175 and S. pyogenes ATCC 12344. […] The diameter of this zone of “inhibition” was measured using a ProtoCOL™ automated zone sizer (Synbiosis, Cambridge, UK). […]

Molecule `CC(=O)c1c([O-])c(C)c([O-])c2c1OC1=CC(=O)C(C(C)=O)C(=O)C12C.[Cu+2]` (stereo not shown) [Copper usnate, copper (II) usnate] has a DDA zone diameter of 31.3 ± 0.6 mm.
